Source: the NIST ThermoML archive (doi:10.1021/acs.jced.9b00248)

Experiment: mn = molality of the nth substance listed, in mol/kg
Settings: Liquid; for mass density: Vibrating tube method; for viscosity: Vibrating wire viscometry

[Cl-].[Na+] [sodium chloride] + O
Settings	mass density [kg/m3]	viscosity [mPa·s]
373.25 K, 1400 kPa, m1 = 0.77	988.09	–
373.25 K, 15310 kPa, m1 = 0.77	994.18	–
373.25 K, 30220 kPa, m1 = 0.77	1000.44	–
373.25 K, 50060 kPa, m1 = 0.77	1008.5	–
373.25 K, 69930 kPa, m1 = 0.77	1016.2	–
373.25 K, 99960 kPa, m1 = 0.77	1027.15	–
373.31 K, 1400 kPa, m1 = 0.77	–	0.31
373.31 K, 30200 kPa, m1 = 0.77	–	0.318
373.31 K, 50000 kPa, m1 = 0.77	–	0.323
373.31 K, 69900 kPa, m1 = 0.77	–	0.329
373.31 K, 100000 kPa, m1 = 0.77	–	0.338
398.18 K, 1400 kPa, m1 = 0.77	–	0.247
398.18 K, 15300 kPa, m1 = 0.77	–	0.251
398.18 K, 30200 kPa, m1 = 0.77	–	0.256
398.18 K, 50100 kPa, m1 = 0.77	–	0.26
398.18 K, 70000 kPa, m1 = 0.77	–	0.265
398.18 K, 100000 kPa, m1 = 0.77	–	0.273
398.29 K, 1390 kPa, m1 = 2.5	1029.58	–
398.29 K, 15300 kPa, m1 = 2.5	1035.58	–
398.29 K, 30230 kPa, m1 = 2.5	1041.92	–
398.29 K, 50080 kPa, m1 = 2.5	1049.89	–
398.29 K, 69980 kPa, m1 = 2.5	1057.41	–
398.29 K, 100050 kPa, m1 = 2.5	1068.15	–
398.81 K, 1460 kPa, m1 = 0.77	969.16	–
398.81 K, 15370 kPa, m1 = 0.77	975.7	–
398.81 K, 30260 kPa, m1 = 0.77	982.49	–
398.81 K, 50080 kPa, m1 = 0.77	991.06	–
398.81 K, 69950 kPa, m1 = 0.77	999.13	–
398.81 K, 99990 kPa, m1 = 0.77	1010.69	–
423.31 K, 15300 kPa, m1 = 0.77	–	0.206
423.31 K, 30200 kPa, m1 = 0.77	–	0.212
423.31 K, 50100 kPa, m1 = 0.77	–	0.216
423.31 K, 70000 kPa, m1 = 0.77	–	0.22
423.31 K, 100000 kPa, m1 = 0.77	–	0.228
423.62 K, 1410 kPa, m1 = 2.5	1009.24	–
423.62 K, 15330 kPa, m1 = 2.5	1015.81	–
423.62 K, 30250 kPa, m1 = 2.5	1022.75	–
423.62 K, 50100 kPa, m1 = 2.5	1031.25	–
423.62 K, 69990 kPa, m1 = 2.5	1039.38	–
423.62 K, 100050 kPa, m1 = 2.5	1050.77	–
423.73 K, 1450 kPa, m1 = 0.77	947.66	–
423.73 K, 15370 kPa, m1 = 0.77	954.86	–
423.73 K, 30270 kPa, m1 = 0.77	962.29	–
423.73 K, 50110 kPa, m1 = 0.77	971.57	–
423.73 K, 69960 kPa, m1 = 0.77	980.32	–
423.73 K, 100000 kPa, m1 = 0.77	992.59	–
448.27 K, 30300 kPa, m1 = 0.77	–	0.181
448.27 K, 50100 kPa, m1 = 0.77	–	0.185
448.27 K, 70000 kPa, m1 = 0.77	–	0.19
448.27 K, 100000 kPa, m1 = 0.77	–	0.197
448.85 K, 1410 kPa, m1 = 2.5	987.39	–
448.85 K, 15330 kPa, m1 = 2.5	994.66	–
448.85 K, 30260 kPa, m1 = 2.5	1002.41	–
448.85 K, 50110 kPa, m1 = 2.5	1011.56	–
448.97 K, 1460 kPa, m1 = 0.77	923.83	–
448.97 K, 15380 kPa, m1 = 0.77	932.02	–
448.97 K, 30290 kPa, m1 = 0.77	940.31	–
448.97 K, 50120 kPa, m1 = 0.77	950.53	–
448.97 K, 69980 kPa, m1 = 0.77	960.05	–
448.97 K, 100000 kPa, m1 = 0.77	973.43	–
